From ChEMBL document CHEMBL1201862, “PubChem BioAssay data set” (2004)
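Briefly, cells in 96-well plates were exposed to five compound concentrations for 48 h, and endpoints were estimated by linear interpolation. GI50 is the concentration that inhibits growth by half.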 Activity calls are given as the source filed them. Cut-off read from the data, not from the text of the source: active = GI50 up to about 1.1 µM and inactive = higher.

Columns and labels:
Assay in all cases: growth of human tumour cells (NCI), 48 h
A498 = tested on: A498
ACHN = tested on: ACHN
CAKI-1 = tested on: CAKI-1
DU-145 = tested on: DU-145
HCC 2998 = tested on: HCC 2998
HOP-62 = tested on: HOP-62
Hs-578T = tested on: Hs-578T
MCF7 = tested on: MCF7
MDA-MB-231 = tested on: MDA-MB-231
Malme-3M = tested on: Malme-3M
NCI-H460 = tested on: NCI-H460
NCI/ADR-RES = tested on: NCI/ADR-RES
OVCAR-3 = tested on: OVCAR-3
SK-MEL-5 = tested on: SK-MEL-5
SN12C = tested on: SN12C
T47D = tested on: T47D
U-251 = tested on: U-251
SF-268 = tested on: SF-268
NCI-H522 = tested on: NCI-H522

| SMILES | GI50 (A498) | GI50 (ACHN) | GI50 (CAKI-1) | GI50 (DU-145) | GI50 (HCC 2998) | GI50 (HOP-62) | GI50 (Hs-578T) | GI50 (MCF7) | GI50 (MDA-MB-231) | GI50 (Malme-3M) | GI50 (NCI-H460) | GI50 (NCI/ADR-RES) | GI50 (OVCAR-3) | GI50 (SK-MEL-5) | GI50 (SN12C) | GI50 (T47D) | GI50 (U-251) | GI50 (SF-268) | GI50 (NCI-H522) |
| --- | --- | --- | --- | --- | --- | --- | --- | --- | --- | --- | --- | --- | --- | --- | --- | --- | --- | --- | --- |
| COc1cc2c(cc1OC)CN1CCc3ccccc3CC1C2 (centres undefined) | 43.3 µM (inactive) | 22.6 µM (inactive) | 42.4 µM (inactive) | 37.6 µM (inactive) | 28.8 µM (inactive) | 65.8 µM (inactive) | > 100 µM (inactive) | 25.6 µM (inactive) | > 100 µM (inactive) | 25.8 µM (inactive) | 26.3 µM (inactive) | 54.7 µM (inactive) | 97.5 µM (inactive) | 27.1 µM (inactive) | 40.7 µM (inactive) | 22.5 µM (inactive) | 93.1 µM (inactive) |  |  |
| N#Cc1c(-c2ccccc2)[nH]c(=O)n(C2OC(CO)C(O)C(O)C2O)c1=O (centres undefined) | > 100 µM (inactive) | > 100 µM (inactive) | > 100 µM (inactive) | > 100 µM (inactive) | > 100 µM (inactive) | > 100 µM (inactive) | > 100 µM (inactive) | > 100 µM (inactive) | > 100 µM (inactive) |  | > 100 µM (inactive) | > 100 µM (inactive) | > 100 µM (inactive) | > 100 µM (inactive) | > 100 µM (inactive) | > 100 µM (inactive) | > 100 µM (inactive) | > 100 µM (inactive) |  |
| CC(C)/C(Cl)=N\OC(=O)Nc1ccc(F)cc1F | 17 µM (inactive) | 3.36 µM (inactive) | 19.3 µM (inactive) | 17.8 µM (inactive) | 18.3 µM (inactive) | 17.6 µM (inactive) | 23.3 µM (inactive) | 3.43 µM (inactive) | 2.21 µM (inactive) | 1.66 µM (inactive) | 20.7 µM (inactive) | 7.05 µM (inactive) | 2.68 µM (inactive) | 14.3 µM (inactive) | 6.78 µM (inactive) | 14.4 µM (inactive) | 18 µM (inactive) | 19.5 µM (inactive) |  |
| Cc1ccc(/N=N/c2ccc(N)cc2C)c(S(N)(=O)=O)c1 | > 100 µM (inactive) | 90.6 µM (inactive) | > 100 µM (inactive) | > 100 µM (inactive) |  | > 100 µM (inactive) | 63 µM (inactive) | 61.9 µM (inactive) | > 100 µM (inactive) | > 100 µM (inactive) | 49.3 µM (inactive) | 76.6 µM (inactive) | 50.4 µM (inactive) | 77.6 µM (inactive) | > 100 µM (inactive) | 48.8 µM (inactive) | > 100 µM (inactive) | > 100 µM (inactive) | 36.4 µM (inactive) |
| Cc1cc(C)c(C)c(-n2[nH]c(=O)n(C)c2=O)c1C | > 100 µM (inactive) | > 100 µM (inactive) | > 100 µM (inactive) | > 100 µM (inactive) |  | > 100 µM (inactive) | > 100 µM (inactive) | > 100 µM (inactive) | > 100 µM (inactive) |  | > 100 µM (inactive) | > 100 µM (inactive) | > 100 µM (inactive) | > 100 µM (inactive) | > 100 µM (inactive) | > 100 µM (inactive) | > 100 µM (inactive) | > 100 µM (inactive) |  |
| Cc1cccc2c(N)c3cccc(C(=O)NCC[N+](C)(C)Cc4ccc(S(C)(=O)=O)cc4)c3nc12 | 10.8 µM (inactive) | 31.4 µM (inactive) | 26.1 µM (inactive) | 50 µM (inactive) | 46.7 µM (inactive) | 27.7 µM (inactive) | 19.9 µM (inactive) | 11.5 µM (inactive) | > 81.3 µM (inactive) | 38.5 µM (inactive) | 4.3 µM (inactive) | > 100 µM (inactive) | 67 µM (inactive) | 70.5 µM (inactive) | 2.9 µM (inactive) | 59.7 µM (inactive) | 45.6 µM (inactive) | 25.1 µM (inactive) |  |
| CC1(C)OC2C(=O)C=C(COCc3ccccc3)C2O1 (centres undefined) | 56.6 µM (inactive) | 31.6 µM (inactive) | 35.3 µM (inactive) | 44.6 µM (inactive) |  | 26.4 µM (inactive) | 27 µM (inactive) | 34 µM (inactive) | 27.4 µM (inactive) | 19 µM (inactive) |  | 37.2 µM (inactive) |  | 13.1 µM (inactive) | 28 µM (inactive) | 23 µM (inactive) | 29.2 µM (inactive) | 25.4 µM (inactive) | 16.5 µM (inactive) |
| O=C1O[C@H](COC(=O)c2ccccc2)[C@@H](OC(=O)c2ccccc2)C=C1OC(=O)c1ccccc1 | 55.7 µM (inactive) | 16 µM (inactive) | 23.8 µM (inactive) | 36.6 µM (inactive) | > 100 µM (inactive) | 20 µM (inactive) | 33 µM (inactive) | 28.8 µM (inactive) | 17.5 µM (inactive) |  | 16.2 µM (inactive) | 18.9 µM (inactive) | 18.3 µM (inactive) | 19 µM (inactive) | 18.8 µM (inactive) | 23.4 µM (inactive) | 18.2 µM (inactive) | 18.3 µM (inactive) | 20.2 µM (inactive) |
| C=CCOC(=O)N1c2ccc(O)cc2[C@@]23O[C@@]24[C@@H]1C#C/C=C\C#C[C@]3(O)C(OC)(OC)C[C@@H]4C | 25.5 µM (inactive) | 17.7 µM (inactive) | 53.6 µM (inactive) | 46.6 µM (inactive) | 63.1 µM (inactive) | 34.6 µM (inactive) | 37.8 µM (inactive) | 35 µM (inactive) | 23.6 µM (inactive) | 26.8 µM (inactive) | 24.4 µM (inactive) | 32.3 µM (inactive) |  | 13.8 µM (inactive) | 23.8 µM (inactive) | > 100 µM (inactive) | 33.5 µM (inactive) | 36.5 µM (inactive) | 31.3 µM (inactive) |
| NS(=O)(=O)c1nnc(NS(=O)(=O)c2ccc(F)cc2)s1 | > 100 µM (inactive) | > 100 µM (inactive) | > 100 µM (inactive) | > 100 µM (inactive) | > 100 µM (inactive) | > 100 µM (inactive) | > 100 µM (inactive) | > 100 µM (inactive) | > 100 µM (inactive) |  | > 100 µM (inactive) | > 100 µM (inactive) | > 100 µM (inactive) | > 100 µM (inactive) | > 100 µM (inactive) | > 100 µM (inactive) | > 100 µM (inactive) | > 100 µM (inactive) |  |
| CC(CN(C)C)C(=O)/C=C/c1ccc(Cl)c(Cl)c1 (centres undefined) | 1.78 µM (inactive) | 1.87 µM (inactive) | 2 µM (inactive) | > 100 µM (inactive) | 1.94 µM (inactive) | 2.96 µM (inactive) | 3.69 µM (inactive) | 0.307 µM (active) | 1.73 µM (inactive) |  | 2.24 µM (inactive) | 3.52 µM (inactive) | 1.78 µM (inactive) | 1.6 µM (inactive) | 1.58 µM (inactive) | 24.7 µM (inactive) | 1.26 µM (inactive) | 1.85 µM (inactive) | 1.55 µM (inactive) |
| O=C(Nc1cccc2ccccc12)c1cc2ccccc2oc1=O | 47.9 µM (inactive) | 24.3 µM (inactive) | 48 µM (inactive) | > 100 µM (inactive) | > 100 µM (inactive) | 14.5 µM (inactive) | 32.8 µM (inactive) | > 100 µM (inactive) | 23.6 µM (inactive) | 12.5 µM (inactive) | > 100 µM (inactive) | 60.3 µM (inactive) | 70.5 µM (inactive) | > 100 µM (inactive) | > 100 µM (inactive) | > 100 µM (inactive) | 34 µM (inactive) | 23.3 µM (inactive) |  |
